According to patent US20090069370A1, “AZACYCLYLISOQUINOLINONE AND ISOINDOLINONE DERIVATIVES AS HISTAMINE-3 ANTAGONISTS” (Wyeth, priority 2007, published 2009):
pKi: −log10 of the molar value. Structures can show the parent of a compound that is named as a salt.

target: T1, Human Histamine H3 Receptor (Homo sapiens, UniProt Q9Y5N1); test: Methyl histamine binding in human histamine H3 receptor cell line; settings: membranes of stably transfected HEK293T cells; radioligand 1 nM; Ki from IC50 by Cheng-Prusoff
T1 construct: expressed in transfected cells; host or cells: HEK293T cells, stably transfected; membrane preparation
T1 sequence (Q9Y5N1 whole entry): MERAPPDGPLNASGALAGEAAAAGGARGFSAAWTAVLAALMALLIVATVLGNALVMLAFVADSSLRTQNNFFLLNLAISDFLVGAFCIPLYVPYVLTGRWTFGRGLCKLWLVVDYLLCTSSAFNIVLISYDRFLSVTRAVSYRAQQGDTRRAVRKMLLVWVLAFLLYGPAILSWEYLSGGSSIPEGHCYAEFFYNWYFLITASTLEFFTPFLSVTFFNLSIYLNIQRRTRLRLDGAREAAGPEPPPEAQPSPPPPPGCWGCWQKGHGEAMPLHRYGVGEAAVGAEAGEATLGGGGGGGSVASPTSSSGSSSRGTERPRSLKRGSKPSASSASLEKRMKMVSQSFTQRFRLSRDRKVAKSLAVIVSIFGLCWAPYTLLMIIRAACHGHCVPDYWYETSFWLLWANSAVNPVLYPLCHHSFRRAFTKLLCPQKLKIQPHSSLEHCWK
Experimental: Evaluation of Methyl Histamine Binding in Human Histamine H3 Receptor Cell Line
The affinity of test compounds for the histamine 3 (H3) receptor is evaluated in the following manner. Stably transfected HEK293T cells are grown in DMEM containing 10% heat inactivated FBS and G-418 (500 ug/ml). Cells are scraped from the plate, transferred to centrifuge tubes, washed one time in PBS by centrifugation in a Sorvall RT7 Plus centrifuge (2000 rpm 10 minutes, 4° C.). The resulting pellets are stored at −80° C. until ready for use. Cells are re-suspended in buffer (50 mM Tris pH=7.5) and placed in a Dounce homogenizer, douncing ten times to homogenize cells. The homogenate is spun down by centrifugation (Sorvall RT7 Plus, 1800 rpm 10 minutes, 4° C.). The supernatant is placed in a Corex tube and spun down by centrifugation (Sorvall RC 5c Plus, 17,000 rpm 20 minutes, 4° C.). The pellet is resuspended in buffer (50 mM Tris, pH 7.5). Protein concentration (ug/ul) is determined using the Micro-BCA Protein Determination. The binding assay is set up in a 96 well microtiter plate in a total volume of 250 uL. Non-specific binding is determined in the presence of 10 uM clobenpropit. The final radioligand concentration is 1 nM. The test compound is serially diluted using the Beckman Biomek2000 to a final approximate range of 100 uM to 100 pM. Membranes are suspended in buffer, homogenized in 2 bursts of ten seconds using a Vitris mechanical homogenizer set at power setting 5. Ten μg of membranes are added to each well. Following a one hour incubation at 30° C., the reaction is terminated by the addition of ice cold buffer and rapid filtration with a Packard Filtermate Harvester through a GF/B filter pre-soaked with 1% PEI for one hour. The plate is dried for one hour at 37° C. and 60 μL Microscint Scintillant is added to each well. The CPM per well is measured on a Packard Top Count NXT. Ki values are determined in nM. The Ki is calculated from the IC50 (i.e. the concentration of competing ligand which displaces 50% of the specific binding of the radioligand). CPM values are expressed as % specific binding and plotted vs compound concentration. A curve is fitted using a four-parameter logistic fit and the IC50 value is determined. The Ki is calculated from this using the Cheng-Prusoff equation: […]=IC50/1+(L/Kd) where L=concentration of free radioligand used in the assay, and Kd is the dissociation constant of the radioligand for the receptor. L is determined for each experiment by counting an aliquot of the diluted radioligand (corresponding to that added to each well) and the Kd has previously been determined under identical conditions for this cell line/radioligand.

SMILES	pKi
CNC(=O)c1ccc(-c2ccc3c(c2)CCN(C2CCN(C4CCC4)C2)C3=O)cc1 (stereo in doubt) [Example 90, (R)-4-(2-(1-cyclobutylpyrrolidin-3-yl)-1-oxo-1,2,3,4-tetrahydro-isoquinolin-6-yl)-N-methylbenzamide hydrochloride]	≥ 8.00
COC(=O)c1ccc(Oc2ccc3c(c2)CCN(C2CCN(C4CCC4)CC2)C3=O)cc1 [Example 1, methyl 4-{[2-(1-Cyclobutylpiperidin-4-yl)-1-oxo-1,2,3,4-tetrahydroisoquinolin-6-yl]oxy}benzoate]	7.00 to 7.30
NC(=O)c1ccc(Oc2ccc3c(c2)CCN(C2CCN(C4CCC4)CC2)C3=O)cc1 [Example 3, 4-{[2-(1-cyclobutylpiperidin-4-yl)-1-oxo-1,2,3,4-tetrahydroiso-quinolin-6-yl]oxy}benzamide Hydrochloride]	7.60 to 8.00
CNC(=O)c1ccc(Oc2ccc3c(c2)CCN(C2CCN(C4CCC4)CC2)C3=O)cc1 [Example 4, 4-{[2-(1-Cyclobutylpiperidin-4-yl)-1-oxo-1,2,3,4-tetrahydroisoquinolin-6-yl]oxy}-N-methylbenzamide]	≥ 8.00
CCNC(=O)c1ccc(Oc2ccc3c(c2)CCN(C2CCN(C4CCC4)CC2)C3=O)cc1 [Example 5, 4-{[2-(1-Cyclobutylpiperidin-4-yl)-1-oxo-1,2,3,4-tetrahydroisoquinolin-6-yl]oxy}-N-ethylbenzamide]	≥ 8.00
CC(C)NC(=O)c1ccc(Oc2ccc3c(c2)CCN(C2CCN(C4CCC4)CC2)C3=O)cc1 [Example 6, 4-{[2-(1-Cyclobutylpiperidin-4-yl)-1-oxo-1,2,3,4-tetrahydroisoquinolin-6-yl]oxy}-N-isopropylbenzamide]	7.60 to 8.00
O=C(NC1CC1)c1ccc(Oc2ccc3c(c2)CCN(C2CCN(C4CCC4)CC2)C3=O)cc1 [Example 7, 4-{[2-(1-Cyclobutylpiperidin-4-yl)-1-oxo-1,2,3,4-tetrahydroisoquinolin-6-yl]oxy}-N-cyclopropylbenzamide]	≥ 8.00
O=C(NC1CCC1)c1ccc(Oc2ccc3c(c2)CCN(C2CCN(C4CCC4)CC2)C3=O)cc1 [Example 8, N-Cyclobutyl-4-{[2-(1-cyclobutylpiperidin-4-yl)-1-oxo-1,2,3,4-tetrahydroisoquinolin-6-yl]oxy}benzamide]	≥ 8.00
O=C(NC1CCCC1)c1ccc(Oc2ccc3c(c2)CCN(C2CCN(C4CCC4)CC2)C3=O)cc1 [Example 9, 4-{[2-(1-Cyclobutylpiperidin-4-yl)-1-oxo-1,2,3,4-tetrahydroisoquinolin-6-yl]oxy}-N-cyclopentylbenzamide]	7.60 to 8.00
CN(C)C(=O)c1ccc(Oc2ccc3c(c2)CCN(C2CCN(C4CCC4)CC2)C3=O)cc1 [Example 10, 4-{[2-(1-Cyclobutylpiperidin-4-yl)-1-oxo-1,2,3,4-tetrahydroisoquinolin-6-yl]oxy}-N,N-dimethylbenzamide]	7.60 to 8.00
CCN(CC)C(=O)c1ccc(Oc2ccc3c(c2)CCN(C2CCN(C4CCC4)CC2)C3=O)cc1 [Example 11, 4-{[2-(1-Cyclobutylpiperidin-4-yl)-1-oxo-1,2,3,4-tetrahydroisoquinolin-6-yl]oxy}-N,N-diethylbenzamide]	7.30 to 7.60
O=C(c1ccc(Oc2ccc3c(c2)CCN(C2CCN(C4CCC4)CC2)C3=O)cc1)N1CCCC1 [Example 12, 2-(1-Cyclobutylpiperidin-4-yl)-6-[4-(pyrrolidin-1-ylcarbonyl)phenoxy]-3,4-dihydroisoquinolin-1(2H)-one]	≥ 8.00
NC(=O)c1ccc(COc2ccc3c(c2)CCN(C2CCN(C4CCC4)CC2)C3=O)cc1 [Example 15, 4-({[2-(1-cyclobutylpiperidin-4-yl)-1-oxo-1,2,3,4-tetrahydroiso-quinolin-6-yl]oxy}methyl)benzamide acid hydrochloride]	≥ 8.00
CNC(=O)c1ccc(COc2ccc3c(c2)CCN(C2CCN(C4CCC4)CC2)C3=O)cc1 [Example 16, 4-({[2-(1-Cyclobutylpiperidin-4-yl)-1-oxo-1,2,3,4-tetrahydroisoquinolin-6-yl]oxy}methyl)-N-methylbenzamide]	≥ 8.00
CCNC(=O)c1ccc(COc2ccc3c(c2)CCN(C2CCN(C4CCC4)CC2)C3=O)cc1 [Example 17, 4-({[2-(1-Cyclobutylpiperidin-4-yl)-1-oxo-1,2,3,4-tetrahydroisoquinolin-6-yl]oxy}methyl)-N-ethylbenzamide]	≥ 8.00
CN(C)C(=O)c1ccc(COc2ccc3c(c2)CCN(C2CCN(C4CCC4)CC2)C3=O)cc1 [Example 18, 4-({[2-(1-Cyclobutylpiperidin-4-yl)-1-oxo-1,2,3,4-tetrahydroisoquinolin-6-yl]oxy}methyl)-N,N-dimethylbenzamide]	≥ 8.00
O=C(NC1CCC1)c1ccc(COc2ccc3c(c2)CCN(C2CCN(C4CCC4)CC2)C3=O)cc1 [Example 19, N-Cyclobutyl-4-({[2-(1-cyclobutylpiperidin-4-yl)-1-oxo-1,2,3,4-tetrahydroisoquinolin-6-yl]oxy}methyl)benzamide]	≥ 8.00
O=C(c1ccc(COc2ccc3c(c2)CCN(C2CCN(C4CCC4)CC2)C3=O)cc1)N1CCCC1 [Example 20, 2-(1-Cyclobutylpiperidin-4-yl)-6-{[4-(pyrrolidin-1-ylcarbonyl)benzyl]oxy}-3,4-dihydroisoquinolin-1(2H)-one]	≥ 8.00
O=C(NC1CCCC1)c1ccc(COc2ccc3c(c2)CCN(C2CCN(C4CCC4)CC2)C3=O)cc1 [Example 21, 4-({[2-(1-Cyclobutylpiperidin-4-yl)-1-oxo-1,2,3,4-tetrahydroisoquinolin-6-yl]oxy}methyl)-N-cyclopentylbenzamide]	≥ 8.00
N#Cc1ccc(-c2ccc3c(c2)CN(C2CCNCC2)C3=O)cc1 [Example 22, 4-(1-oxo-2-piperidin-4-yl-2,3-dihydro-1H-isoindol-5-yl)benzonitrile hydrochloride]	< 7.00
CN1CCC(N2Cc3cc(-c4ccc(C#N)cc4)ccc3C2=O)CC1 [Example 23, hydrochloride]	< 7.00
CCN1CCC(N2Cc3cc(-c4ccc(C#N)cc4)ccc3C2=O)CC1 [Example 24, 4-[2-(1-Ethylpiperidin-4-yl)-1-oxo-2,3-dihydro-1H-isoindol-5-yl]benzonitrile]	< 7.00
CCCN1CCC(N2Cc3cc(-c4ccc(C#N)cc4)ccc3C2=O)CC1 [Example 25, 4-[1-Oxo-2-(1-propylpiperidin-4-yl)-2,3-dihydro-1H-isoindol-5-yl]benzonitrile]	< 7.00
N#Cc1ccc(-c2ccc3c(c2)CN(C2CCN(CC4CC4)CC2)C3=O)cc1 [Example 26, 4-{2-[1-(Cyclopropylmethyl)piperidin-4-yl]-1-oxo-2,3-dihydro-1H-isoindol-5-yl}benzonitrile]	7.00 to 7.30
N#Cc1ccc(-c2ccc3c(c2)CN(C2CCN(CC4CCCC4)CC2)C3=O)cc1 [Example 27, 4-{2-[1-(Cyclopentylmethyl)piperidin-4-yl]-1-oxo-2,3-dihydro-1H-isoindol-5-yl}benzonitrile]	7.30 to 7.60
N#Cc1ccc(-c2ccc3c(c2)CN(C2CCN(C4CCC4)CC2)C3=O)cc1 [Example 28, 4-[2-(1-Cyclobutylpiperidin-4-yl)-1-oxo-2,3-dihydro-1H-isoindol-5-yl]benzonitrile]	7.30 to 7.60
N#Cc1ccc(-c2ccc3c(c2)CN(C2CCN(C4CCCC4)CC2)C3=O)cc1 [Example 29, 4-[2-(1-Cyclopentylpiperidin-4-yl)-1-oxo-2,3-dihydro-1H-isoindol-5-yl]benzonitrile]	7.60 to 8.00
